Measured values: ChEMBL document CHEMBL4145521, “Regioselective synthesis of 3,4-diaryl-5-unsubstituted isoxazoles, analogues of natural cytostatic combretastatin A4” (Eur J Med Chem, 2018)

Key:
Assay type in all cases: functional
[1] = test system: U-251; assay: Cytotoxicity against human U251 cells assessed as cell growth at 0.01 uM incubated for 48 hrs by sulforhodamine B assay relative to control; details: U-251, 48 h, read-out: Activity
[2] = test system: MDA-MB-435; assay: Cytotoxicity against human MDA-MB-435 cells assessed as cell growth at 0.01 uM incubated for 48 hrs by sulforhodamine B assay relative to control; details: MDA-MB-435, 48 h, read-out: Activity
[3] = test system: ACHN; assay: Cytotoxicity against human ACHN cells assessed as cell growth at 0.01 uM incubated for 48 hrs by sulforhodamine B assay relative to control; details: read-out: Activity
[4] = test system: NCI-H460; assay: Cytotoxicity against human NCI-H460 cells assessed as cell growth at 0.1 uM incubated for 48 hrs by sulforhodamine B assay relative to control; details: NCI-H460, 48 h, read-out: Activity
[5] = test system: Malme-3M; assay: Cytotoxicity against human MALME-3M cells assessed as cell growth at 0.1 uM incubated for 48 hrs by sulforhodamine B assay relative to control; details: read-out: Activity
[6] = test system: MDA-MB-435; assay: Cytotoxicity against human MDA-MB-435 cells assessed as cell growth at 0.1 uM incubated for 48 hrs by sulforhodamine B assay relative to control; details: MDA-MB-435, 48 h, read-out: Activity
[7] = test system: OVCAR-8; assay: Cytotoxicity against human OVCAR8 cells assessed as cell growth at 0.1 uM incubated for 48 hrs by sulforhodamine B assay relative to control; details: OVCAR-8, 48 h, read-out: Activity
[8] = test system: NCI/ADR-RES; assay: Cytotoxicity against human NCI/ADR-RES cells assessed as cell growth at 0.1 uM incubated for 48 hrs by sulforhodamine B assay relative to control; details: read-out: Activity
[9] = test system: SN12C; assay: Cytotoxicity against human SN12C cells assessed as cell growth at 0.1 uM incubated for 48 hrs by sulforhodamine B assay relative to control; details: read-out: Activity
[10] = test system: Malme-3M; assay: Cytotoxicity against human MALME-3M cells assessed as cell growth at 1 uM incubated for 48 hrs by sulforhodamine B assay relative to control; details: read-out: Activity
[11] = test system: M14; assay: Cytotoxicity against human M14 cells assessed as cell growth at 1 uM incubated for 48 hrs by sulforhodamine B assay relative to control; details: M14, 48 h, read-out: Activity
[12] = test system: SK-MEL-28; assay: Cytotoxicity against human SK-MEL-28 cells assessed as cell growth at 1 uM incubated for 48 hrs by sulforhodamine B assay relative to control; details: SK-MEL-28, 48 h, read-out: Activity
[13] = test system: UACC-62; assay: Cytotoxicity against human UACC62 cells assessed as cell growth at 1 uM incubated for 48 hrs by sulforhodamine B assay relative to control; details: UACC-62, 48 h, read-out: Activity
[14] = test system: SF-268; assay: Cytotoxicity against human SF268 cells assessed as cell growth at 10 uM incubated for 48 hrs by sulforhodamine B assay relative to control; details: SF-268, 48 h, read-out: Activity
[15] = test system: SK-MEL-28; assay: Cytotoxicity against human SK-MEL-28 cells assessed as cell growth at 10 uM incubated for 48 hrs by sulforhodamine B assay relative to control; details: SK-MEL-28, 48 h, read-out: Activity
[16] = test system: SK-MEL-5; assay: Cytotoxicity against human SK-MEL-5 cells assessed as cell growth at 10 uM incubated for 48 hrs by sulforhodamine B assay relative to control; details: SK-MEL-5, 48 h, read-out: Activity
[17] = test system: IGROV-1; assay: Cytotoxicity against human IGROV1 cells assessed as cell growth at 10 uM incubated for 48 hrs by sulforhodamine B assay relative to control; details: IGROV-1, 48 h, read-out: Activity
[18] = test system: NCI/ADR-RES; assay: Cytotoxicity against human NCI/ADR-RES cells assessed as cell growth at 10 uM incubated for 48 hrs by sulforhodamine B assay relative to control; details: read-out: Activity
[19] = test system: SK-OV-3; assay: Cytotoxicity against human SKOV3 cells assessed as cell growth at 10 uM incubated for 48 hrs by sulforhodamine B assay relative to control; details: SK-OV-3, 48 h, read-out: Activity
[20] = test system: 786-0; assay: Cytotoxicity against human 786-0 cells assessed as cell growth at 10 uM incubated for 48 hrs by sulforhodamine B assay relative to control; details: 786-0, 48 h, read-out: Activity
[21] = test system: MDA-MB-231; assay: Cytotoxicity against human MDA-MB-231 cells assessed as cell growth at 10 uM incubated for 48 hrs by sulforhodamine B assay relative to control; details: MDA-MB-231, 48 h, read-out: Activity
[22] = test system: NCI-H522; assay: Cytotoxicity against human NCI-H522 cells assessed as cell growth at 100 uM incubated for 48 hrs by sulforhodamine B assay relative to control; details: NCI-H522, 48 h, read-out: Activity
[23] = test system: HCT-15; assay: Cytotoxicity against human HCT15 cells assessed as cell growth at 100 uM incubated for 48 hrs by sulforhodamine B assay relative to control; details: HCT-15, 48 h, read-out: Activity
[24] = test system: HT-29; assay: Cytotoxicity against human HT-29 cells assessed as cell growth at 100 uM incubated for 48 hrs by sulforhodamine B assay relative to control; details: HT-29, 48 h, read-out: Activity
[25] = test system: M14; assay: Cytotoxicity against human M14 cells assessed as cell growth at 100 uM incubated for 48 hrs by sulforhodamine B assay relative to control; details: M14, 48 h, read-out: Activity
[26] = test system: NCI-H322M; assay: Cytotoxicity against human NCI-H322M cells incubated for 48 hrs by sulforhodamine B assay
[27] = test system: HCT-15; assay: Cytotoxicity against human HCT15 cells incubated for 48 hrs by sulforhodamine B assay; details: HCT-15, 48 h
[28] = test system: SNB-19; assay: Cytotoxicity against human SNB19 cells incubated for 48 hrs by sulforhodamine B assay; details: SNB-19, 48 h
[29] = test system: OVCAR-5; assay: Cytotoxicity against human OVCAR5 cells incubated for 48 hrs by sulforhodamine B assay; details: OVCAR-5, 48 h
[30] = test system: NCI/ADR-RES; assay: Cytotoxicity against human NCI/ADR-RES cells incubated for 48 hrs by sulforhodamine B assay
[31] = test system: CAKI-1; assay: Cytotoxicity against human Caki1 cells incubated for 48 hrs by sulforhodamine B assay; details: CAKI-1, 48 h

COc1ccc(-c2nocc2-c2cc(OC)c(OC)c(OC)c2)cc1
growth at 0.01 µM [1]: 99%
growth at 0.01 µM [2]: 79%
growth at 0.01 µM [3]: 94%
growth at 0.1 µM [4]: 30%
growth at 0.1 µM [5]: 55%
growth at 0.1 µM [6]: 3%
growth at 0.1 µM [7]: 74%
growth at 0.1 µM [8]: 34%
growth at 0.1 µM [9]: 88%
growth at 1 µM [10]: 46%
growth at 1 µM [11]: 12%
growth at 1 µM [12]: 58%
growth at 1 µM [13]: 27%
growth at 10 µM [14]: 27%
growth at 10 µM [15]: 46%
growth at 10 µM [16]: -11%
growth at 10 µM [17]: 25%
growth at 10 µM [18]: 9%
growth at 10 µM [19]: 32%
growth at 10 µM [20]: 24%
growth at 10 µM [21]: 17%
growth at 100 µM [22]: -48%
growth at 100 µM [23]: 1%
growth at 100 µM [24]: -36%
growth at 100 µM [25]: -5%
GI50 ([26]; read-out: GI50): 0.737 µM
LC50 ([26]; read-out: LC50): > 100 µM
TGI ([26]; read-out: TGI): > 100 µM
GI50 ([26]; read-out: pGI50 (converted)): 0.741 µM
LC50 ([26]; read-out: pLC50 (converted)): > 100 µM
TGI ([26]; read-out: pTGI): > 100 µM
GI50 ([27]; read-out: GI50): 0.044 µM
LC50 ([27]; read-out: LC50): > 100 µM
TGI ([27]; read-out: TGI): > 100 µM
GI50 ([27]; read-out: pGI50 (converted)): 0.0437 µM
LC50 ([27]; read-out: pLC50 (converted)): > 100 µM
TGI ([27]; read-out: pTGI): > 100 µM
GI50 ([28]; read-out: GI50): 0.373 µM
CC50 ([28]; read-out: LC50 (the source's name)): > 100 µM
TGI ([28]; read-out: TGI): > 100 µM
GI50 ([28]; read-out: pGI50 (converted)): 0.372 µM
CC50 ([28]; read-out: pLC50 (the source's name) (converted)): > 100 µM
TGI ([28]; read-out: pTGI): > 100 µM
GI50 ([29]; read-out: GI50): 1.65 µM
LC50 ([29]; read-out: LC50): > 100 µM
TGI ([29]; read-out: TGI): > 100 µM
GI50 ([29]; read-out: pGI50 (converted)): 1.66 µM
LC50 ([29]; read-out: pLC50 (converted)): > 100 µM
TGI ([29]; read-out: pTGI): > 100 µM
GI50 ([30]; read-out: GI50): 0.0538 µM
LC50 ([30]; read-out: LC50): > 100 µM
TGI ([30]; read-out: TGI): 37.2 µM
GI50 ([30]; read-out: pGI50 (converted)): 0.0537 µM
LC50 ([30]; read-out: pLC50 (converted)): > 100 µM
TGI ([30]; read-out: pTGI (converted)): 37.2 µM
GI50 ([31]; read-out: GI50): 0.642 µM
LC50 ([31]; read-out: LC50): > 100 µM
TGI ([31]; read-out: TGI): > 100 µM
GI50 ([31]; read-out: pGI50 (converted)): 0.646 µM
LC50 ([31]; read-out: pLC50 (converted)): > 100 µM
TGI ([31]; read-out: pTGI): > 100 µM
